ChEMBL document CHEMBL6096698, “Discovery of a Selective and Orally Bioavailable RET Degrader with Effectiveness in Various Mutations” (J Med Chem, 2025)

Assays:
[1] = test system: BaF3; assay: Antiproliferative activity against mouse BaF3 cells stably expressing KIF5B-RET V804M mutant incubated for 72 hrs by CCK8 assay; assay type: functional, cell-based; details: BaF3, 72 h
[2] = test system: BaF3; assay: Antiproliferative activity against mouse BaF3 cells stably expressing KIF5B-RET G810R mutant incubated for 72 hrs by CCK8 assay; assay type: functional, cell-based; details: BaF3, 72 h
[3] = test system: BaF3; assay: Antiproliferative activity against mouse BaF3 cells stably expressing KIF5B-RET incubated for 72 hrs by CCK8 assay; assay type: functional, cell-based; details: BaF3, 72 h
[4] = test system: BaF3; assay: Antiproliferative activity against mouse BaF3 cells stably expressing KIF5B-RET G810S mutant incubated for 72 hrs by CCK8 assay; assay type: functional, cell-based; details: BaF3, 72 h
[5] = test system: BaF3; assay: Antiproliferative activity against mouse BaF3 cells stably expressing KIF5B-RET G810C mutant incubated for 72 hrs by CCK8 assay; assay type: functional, cell-based; details: BaF3, 72 h
[6] = test system: BaF3; assay: PROTAC activity at CRBN/KIF5B-RET (unknown origin) expressed in mouse BaF3 cells assessed as induction of RET degradation at 10 nM incubated for 24 hrs by immunoblot analysis relative to control; assay type: cell-based

| Compound | IC50 [1] [nM] | IC50 [2] [nM] | IC50 [3] [nM] | IC50 [4] [nM] | IC50 [5] [nM] | Activity [6] [%] |
| --- | --- | --- | --- | --- | --- | --- |
| COc1ccc(CN2C3CC2CN(c2ccc(-c4cc(N5CCN(C(=O)CCCCCNc6cccc7c6C(=O)N(C6CCC(=O)NC6=O)C7=O)CC5)cn5ncc(C#N)c45)cn2)C3)cn1 (configuration not stated) | 17.2 | 794 | 6.1 | 105 | 216 | 52 |
| COc1ccc(CN2C3CC2CN(c2ccc(-c4cc(N5CCC(N6CCN(CCCC#Cc7cccc8c7C(=O)N(C7CCC(=O)NC7=O)C8=O)CC6)CC5)cn5ncc(C#N)c45)cn2)C3)cn1 (configuration not stated) | 9.3 | 206 | 4.3 | 63.7 | 54.3 | 62 |
| COc1ccc(CN2C3CC2CN(c2ccc(-c4cc(N5CCN(C(=O)CCCNc6cccc7c6C(=O)N(C6CCC(=O)NC6=O)C7=O)CC5)cn5ncc(C#N)c45)cn2)C3)cn1 (configuration not stated) | 142 | 1140 | 12.2 | 272 | 1020 | 44 |
| COc1ccc(CN2C3CC2CN(c2ccc(-c4cc(N5CCN(C(=O)CNc6ccc7c(c6)C(=O)N(C6CCC(=O)NC6=O)C7=O)CC5)cn5ncc(C#N)c45)cn2)C3)cn1 (configuration not stated) | 178 | 1210 | 16.5 | 176 | 1320 | 40 |
| COc1ccc(CN2C3CC2CN(c2ccc(-c4cc(N5CCC(N6CCN(CCCCCC#Cc7cccc8c7CN(C7CCC(=O)NC7=O)C8=O)CC6)CC5)cn5ncc(C#N)c45)cn2)C3)cn1 (configuration not stated) | 27.6 | 737 | 12.5 | 105 | 61.8 | 40 |

Further lines, with some results ahead:

| IC50 [1] [nM] | IC50 [2] [nM] | IC50 [3] [nM] | IC50 [4] [nM] | IC50 [5] [nM] | Compound | Activity [6] [%] |
| --- | --- | --- | --- | --- | --- | --- |
| 15.3 | 626 | 14.4 | 89.8 | 198 | COc1ccc(CN2C3CC2CN(c2ccc(-c4cc(N5CCC(N6CCN(C(=O)CNc7cccc8c7C(=O)N(C7CCC(=O)NC7=O)C8=O)CC6)CC5)cn5ncc(C#N)c45)cn2)C3)cn1 (configuration not stated) | 36 |
| 17.8 | 672 | 5.9 | 93.5 | 212 | COc1ccc(CN2C3CC2CN(c2ccc(-c4cc(N5CCC(N6CCN(C(=O)CCCCCCCNc7cccc8c7C(=O)N(C7CCC(=O)NC7=O)C8=O)CC6)CC5)cn5ncc(C#N)c45)cn2)C3)cn1 (configuration not stated) | 50 |
| 152 | 812 | 14.9 | 127 | 831 | COc1ccc(CN2C3CC2CN(c2ccc(-c4cc(N5CCC(N6CCN(C(=O)CCCNc7ccc8c(c7)C(=O)N(C7CCC(=O)NC7=O)C8=O)CC6)CC5)cn5ncc(C#N)c45)cn2)C3)cn1 (configuration not stated) | 39 |
| 14.2 | 614 | 3.4 | 86.1 | 190 | COc1ccc(CN2C3CC2CN(c2ccc(-c4cc(N5CCC(N6CCN(C(=O)CCCCCCCNc7ccc8c(c7)C(=O)N(C7CCC(=O)NC7=O)C8=O)CC6)CC5)cn5ncc(C#N)c45)cn2)C3)cn1 (configuration not stated) | 58 |
| 16.6 | 572 | 5.3 | 81.9 | 206 | COc1ccc(CN2C3CC2CN(c2ccc(-c4cc(N5CCC(N6CCN(C(=O)CNc7ccc8c(c7)C(=O)N(C7CCC(=O)NC7=O)C8=O)CC6)CC5)cn5ncc(C#N)c45)cn2)C3)cn1 (configuration not stated) | 52 |
| 209 | 1640 | 13.3 | 202 | 1410 | COc1ccc(CN2C3CC2CN(c2ccc(-c4cc(N5CCN(C(=O)CCCNc6ccc7c(c6)C(=O)N(C6CCC(=O)NC6=O)C7=O)CC5)cn5ncc(C#N)c45)cn2)C3)cn1 (configuration not stated) | 41 |
| 38.4 | 750 | 15.7 | > 5000 | 372 | COc1ccc(CN2C3CC2CN(c2ccc(-c4cc(N5CCN(C6CCN(c7ccc8c(c7)C(=O)N(C7CCC(=O)NC7=O)C8=O)CC6)CC5)cn5ncc(C#N)c45)cn2)C3)cn1 (configuration not stated) | 36 |
